Test results reported in US20210277003A1, “OGA INHIBITOR COMPOUNDS” (Janssen Pharmaceutica NV, priority 2018, published 2021).

Molecular target: T1, recombinant human Meningioma Expressed Antigen 5 (MGEA5), also referred to as O-GlcNAcase (OGA) (Homo sapiens, UniProt O60502)
T1 construct: Full length OGA enzyme was purchased at OnGene (cat #TP322411); purchased OnGene (so in the source)
T1 sequence (O60502 1-916): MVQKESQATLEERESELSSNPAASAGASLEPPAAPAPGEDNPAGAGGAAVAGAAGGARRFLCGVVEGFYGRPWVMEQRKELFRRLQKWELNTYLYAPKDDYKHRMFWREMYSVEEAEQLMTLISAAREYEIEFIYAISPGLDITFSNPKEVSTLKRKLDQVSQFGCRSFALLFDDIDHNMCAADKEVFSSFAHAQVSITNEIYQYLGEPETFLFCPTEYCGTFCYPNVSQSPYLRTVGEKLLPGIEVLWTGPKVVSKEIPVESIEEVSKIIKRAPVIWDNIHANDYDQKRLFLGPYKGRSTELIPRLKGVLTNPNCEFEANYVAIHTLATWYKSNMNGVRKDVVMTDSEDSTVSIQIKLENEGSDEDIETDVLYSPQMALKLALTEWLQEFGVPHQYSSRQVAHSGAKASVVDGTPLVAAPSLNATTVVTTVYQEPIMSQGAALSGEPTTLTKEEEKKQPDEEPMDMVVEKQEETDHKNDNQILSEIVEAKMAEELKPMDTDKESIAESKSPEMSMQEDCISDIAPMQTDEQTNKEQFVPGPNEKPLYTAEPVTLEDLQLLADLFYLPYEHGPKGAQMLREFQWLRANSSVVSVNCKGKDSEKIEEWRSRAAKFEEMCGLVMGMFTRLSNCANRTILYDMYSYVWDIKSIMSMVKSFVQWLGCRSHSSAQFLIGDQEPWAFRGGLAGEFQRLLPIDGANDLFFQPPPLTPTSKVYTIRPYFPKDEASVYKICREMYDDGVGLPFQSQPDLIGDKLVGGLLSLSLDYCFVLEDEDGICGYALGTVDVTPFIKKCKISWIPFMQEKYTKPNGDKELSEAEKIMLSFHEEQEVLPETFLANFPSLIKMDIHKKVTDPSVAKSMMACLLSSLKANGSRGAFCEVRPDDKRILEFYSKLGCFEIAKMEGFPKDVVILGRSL
Experiment: OGA biochemical assay: inhibition of hydrolysis of fluorescein mono-ß-D-N-Acetyl-Glucosamine (FM-GlcNAc), fluorescence readout
Details: FM-GlcNAc substrate; for Emax: read-out: Enzymatic Emax (%); for IC50: read-out: Enzymatic hOGA, pIC50 (converted)
From the text: The assay is based on the inhibition of the hydrolysis of fluorescein mono-ß-D-N-Acetyl-Glucosamine (FM-GlcNAc) (Mariappa et al. 2015, Biochem J 470:255) by the recombinant human Meningioma Expressed Antigen 5 (MGEA5), also referred to as O-GlcNAcase (OGA). The hydrolysis FM-GlcNAc (Marker Gene technologies, cat #M1485) results in the formation of ß-D-N-glucosamineacetate and fluorescein. The fluorescence of the latter can be measured at excitation wavelength 485 nm and emission wavelength 538 nm. An increase in enzyme activity results in an increase in fluorescence signal. Full length OGA enzyme was purchased at OnGene (cat #TP322411). The enzyme was stored in 25 mM Tris.HCl, pH 7.3, 100 mM glycine, 10% glycerol at −20° C. Thiamet G and GlcNAcStatin were tested as reference compounds (Yuzwa et al. 2008 Nature Chemical Biology 4:483; Yuzwa et al. 2012 Nature Chemical Biology 8:393). The assay was performed in 200 mM Citrate/phosphate buffer supplemented with 0.005% Tween-20. 35.6 g Na2HPO4 2 H2O (Sigma, #C0759) were dissolved in 1 L water to obtain a 200 mM solution. 19.2 g citric acid (Merck, #1.06580) was dissolved in 1 L water to obtain a 100 mM solution. pH of the sodium phosphate solution was adjusted with the citric acid solution to 7.2. The buffer to stop the reaction consists of a 500 mM Carbonate buffer, pH 11.0. 734 mg FM-GlcNAc were dissolved in 5.48 mL DMSO to obtain a 250 mM solution and was stored at −20° C. OGA was used at a 2 nM concentration and FM-GlcNAc at a 100 uM final concentration. Dilutions were prepared in assay buffer. 50 nl of a compound dissolved in DMSO was dispensed on Black Proxiplate™ 384 Plus Assay plates (Perkin Elmer, #6008269) and 3 μl fl-OGA enzyme mix added subsequently. Plates were pre-incubated for 60 min at room temperature and then 2 μl FM-GlcNAc substrate mix added. […] Plates were briefly centrifuged for 1 min at 1000 rpm and incubate at room temperature for 6 h. To stop the reaction 5 μl STOP buffer were added and plates centrifuge again 1 min at 1000 rpm. Fluorescence was quantified in the Thermo Scientific Fluoroskan Ascent or the PerkinElmer EnVision with excitation wavelength 485 nm and emission wavelength 538 nm. For analysis a best-fit curve is fitted by a minimum sum of squares method. From this an IC50 value and Hill coefficient was obtained. High control (no inhibitor) and low control (saturating concentrations of standard inhibitor) were used to define the minimum and maximum values.

Structure (SMILES) | Enzymatic hOGA; pIC50 | Emax | IC50
Fc1cc(Cl)c(Nc2nccc3c2ccn3Cc2cnco2)c(Cl)c1 [Compound 142] | 6.56 | 99.2% | –
Fc1cc(Cl)c(Nc2nccc3c2ccn3-c2ncco2)c(Cl)c1 [Compound 182] | – | 97.8% | 309 nM
Clc1cccc(Cl)c1Nc1nccc2c1ccn2Cc1ncc[nH]1 [Compound 191] | – | 98.8% | 229 nM
Cc1cncc(C(C)C)c1Nc1nccc2c1ccn2CC1COC1 [Compound 32] | – | 98% | 234 nM
Cc1ccnc(C)c1Nc1nccc2c1ccn2CC(F)(F)F [Compound 79] | – | 101% | 138 nM
Cn1cnc(Cn2ccc3c(Nc4c(Cl)cc(F)cc4Cl)nccc32)c1 [Compound 120] | 6.77 | 99.2% | –
Cc1cncc(C)c1Nc1nccc2c1ccn2CC1COC1 [Compound 29] | – | 88% | 1620 nM
N#Cc1cnc(-n2ccc3c(Nc4c(Cl)cc(F)cc4Cl)nccc32)[nH]1 [Compound 181] | – | 92.7% | 794 nM
CCn1ccc2c(Nc3c(C)cc(F)cc3C)nccc21 [Compound 37] | – | 101% | 251 nM
Clc1cccc(Cl)c1Nc1nccc2c1ccn2CCC1COC1 [Compound 98] | 6.54 | 98% | –
COCCn1ccc2c(Nc3c(Cl)cncc3Cl)nccc21 [Compound 28] | – | 83% | 2190 nM
Cc1cncc(Cl)c1Nc1nccc2c1ccn2CC1COC1 [Compound 30] | – | 93% | 1410 nM
Cc1ncnc(C(C)C)c1Nc1nccc2c1ccn2CCC(F)(F)F [Compound 192] | – | 98.3% | 182 nM
Cc1ccnc(C)c1Nc1nccc2c1ccn2CCN1CC(F)(F)C1 [Compound 103] | 6.12 | 99.7% | –
CCCC(C)n1ccc2c(Nc3c(C)cncc3C)nccc21 (stereo not drawn) [Compound 33] | – | 99% | 309 nM
CCCCn1ccc2c(Nc3c(C)cnnc3C)nccc21 [Compound 17] | 6.94 | 102% | –
CCC(C)(F)Cn1ccc2c(Nc3c(C)ccnc3C)nccc21 (stereo not drawn) [Compound 108] | 7.32 | 102% | –
Cc1ccnc(C)c1Nc1nccc2c1ccn2CCC1CCO1 (stereo not drawn) [Compound 21] | 6.61 | 96% | –

Structure (SMILES) | Enzymatic hOGA; pIC50 | Emax | IC50
CCC(C)(O)Cn1ccc2c(Nc3c(Cl)cc(F)cc3Cl)nccc21 (stereo not drawn) [Compound 106] | 6.64 | 103% | –
Fc1cc(Cl)c(Nc2nccc3c2ccn3Cc2cocn2)c(Cl)c1 [Compound 121] | 7.25 | 103% | –
Cc1ccnc(C)c1Nc1nccc2c1ccn2CC1COC1 [Compound 4] | 6.03 | 93% | –
Cc1ccc(-n2ccc3c(Nc4c(Cl)cccc4Cl)nccc32)nc1 [Compound 165] | – | 101% | 38 nM
Cc1ccnc(C)c1Nc1nccc2c1ccn2CCC1CC1(F)F (stereo not drawn) [Compound 94] | 6.86 | 99% | –
CCC(O)Cn1ccc2c(Nc3c(C)ccnc3C)nccc21 (stereo not drawn) [Compound 93] | 7.44 | 101% | –
CCCCn1ccc2c(Nc3c(C)cc(N(C)C(C)=O)cc3C)nccc21 [Compound 102] | – | 99% | 229 nM
CCC(Cn1ccc2c(Nc3c(Cl)cc(F)cc3Cl)nccc21)OC (stereo not drawn) [Compound 104] | 6.14 | 96.9% | –
CCC(C)(F)Cn1ccc2c(Nc3c(Cl)cc(F)cc3Cl)nccc21 (stereo not drawn) [Compound 111] | 7.62 | 102% | –
Cc1ccnc(C)c1Nc1nccc2c1ccn2CC1CC1(F)F (stereo not drawn) [Compound 2] | – | 99% | 91.2 nM
Cn1ccnc1Cn1ccc2c(Nc3c(Cl)cccc3Cl)nccc21 [Compound 168] | – | 98.1% | 562 nM
CCCCn1ccc2c(Nc3c(C)cnc4c3OCCO4)nccc21 [Compound 20] | 7.4 | 102% | –
Cc1ccnc(C)c1Nc1nccc2c1ccn2CC1(C)COC1 [Compound 22] | 6.54 | 99% | –
Fc1cc(Cl)c(Nc2nccc3c2ccn3-c2c[nH]cn2)c(Cl)c1 [Compound 190] | – | 96.3% | 562 nM
CN(C)S(=O)(=O)Cn1ccc2c(Nc3c(Cl)cncc3Cl)nccc21 [Compound 3] | – | 92% | 933 nM
Fc1cnc(-n2ccc3c(Nc4c(Cl)cccc4Cl)nccc32)nc1 [Compound 164] | – | 101% | 37.2 nM
Cc1cnc(Cn2ccc3c(Nc4c(Cl)cc(F)cc4Cl)nccc32)o1 [Compound 143] | 7.41 | 100% | –
N#CCCCn1ccc2c(Nc3c(Cl)cncc3Cl)nccc21 [Compound 36] | – | 100% | 275 nM
